Measurements taken from patent publication US12139488B2, “Pyrido[3,2-d]pyrimidine compounds uses thereof for treating a proliferative disease” (Universite de Montreal, priority 2021, dated 2024).

What was measured:
[1] = system: pERK in RAS-mutant cancer cell lines; test: Phospho-ERK inhibition (AlphaLISA), panel of RAS-mutant cancer cell lines; assay type: cell-based, human; conditions: in 10 of the 13 RAS-mutant cell lines tested
Procedure: All cancer cell lines (A375, A101D, A2058, RKO, HT29 SK-MEL 30, IPC298, HepG2, HCT-116, Lovo, SWV620, SW480, NCI-H358, NCI-H2122, Calu-6, NCIH2087, NCIH1755, NCIH1666 and Mewo) were obtained from ATCC and cultured in RPMI-1640 medium (Gibco) supplemented with 5% heat inactivated fetal bovine serum (FBS, Wisent) at 37° C. under 5% CO2. Cells were maintained in T175 flasks (Greiner). They were passaged by removing the culture medium, washing once in 10 mL of room temperature Phosphate Buffered Saline (PBS; Wisent) and incubating at 37° C. with 2 mL of 0.05% Trypsin (Thermo-Fisher). […]
After treatment, media was removed and cells were lysed in 50 μL of 1× AlphaScreen Ultra Lysis Buffer (Perkin Elmer). […] After completion of the reactions, the signals were recorded on an EnVision plate reader (Perkin Elmer) using built in AlphaLISA® settings.
The effect of each compound dilution on the pERK signal was expressed in % inhibition and calculated as follows. […]
The ability of each compound to inhibit pERK signal was expressed as an IC50 value obtained by plotting the inhibition values for each data point of a dilution series and fitting the obtained curves using a log(agonist) versus response-variable slope (four parameters) function using GraphPadPrism (V7.0) or Dotmatics Screening Ultra platform. […]

[2] = system: pERK and pMEK in RAS-mutant HCT-116 cells; test: Immunoblot analysis of pERK and pMEK in HCT-116 cells; assay type: cell-based, human; conditions: 1 h treatment, FIG. 2
Procedure: For immunoblotting analysis, 500,000 HCT-116 cells were plated in 1 mL of complete RPMI-1640 growth medium in 24-well flat-bottomed transparent dishes (Costar). Cells were maintained overnight at 37° C. under 5% CO2 before treatment with compounds' dilution series for one hour.
Cells were then washed once in PBS and lized in 250 μL of Igepal Lysis Buffer (50 mM Tris-HCl pH 7.5, 150 mM NaCl, 1% Igepal-CA630, 1 mM EDTA, 10% Glycerol) supplemented with Leupeptin, Aprotinin, PMSF, phosphatase inhibitor cocktail (Sigma) and Na3VO4 at 4° C. for 15 minutes with gentle rocking. Cell extracts were then cleared by centrifugation at 20,000 g at 4° C. for 10 minutes. Cleared lysates were then transferred on ice in fresh tubes and then boiled in sample loading buffer (100 mM Tris-HCl pH 6.8, 4% SDS, 0.2% bromophenol blue, 20% glycerol, 200 mM p-mercaptoethanol) for 5 minutes prior to fractionation by SDS-PAGE and transfer to nitrocellulose membranes (PALL). […]

YMIN of pERK IC50 curves [1] [%]	SMILES	paradoxical induction of pERK or pMEK signaling (immunoblot) [2]
< −30	Cc1ccc2c(Nc3cccc(Cl)c3F)nccc2c1NC(=O)c1csc2c(N)ncnc12 [Belvarafenib, reference compound]	–
–	Nc1cccc2c1ncn2-c1ccc2ncnc(Nc3c(F)ccc(NS(=O)(=O)c4cccc(Cl)c4Cl)c3F)c2n1 [Example 99]	does not induce paradoxical induction of pERK or pMEK signaling
